Experiment: xn = mol fraction of the nth substance listed
Conditions: 101 kPa, Liquid, Vibrating tube method

C=C[Si](C)(C)O[Si](C)(C)C=C [1,3-diethenyl-1,1,3,3-tetramethyldisiloxane] + COc1ccccc1
mass density [kg/m3]
Conditions	283.15 K	288.15 K	293.15 K	298.15 K	303.15 K
x1 = 0.0501	987.07	982.37	977.74	973.02	968.3
x1 = 0.1	972.12	967.42	962.75	958.01	953.27
x1 = 0.15	958.3	953.58	948.89	944.14	939.38
x1 = 0.2004	945.4	940.66	935.96	931.19	926.42
x1 = 0.2499	933.62	928.87	924.15	919.36	914.57
x1 = 0.3	922.54	917.77	913.04	908.24	903.45
x1 = 0.35	912.24	907.47	902.73	897.91	893.1
x1 = 0.3997	902.67	897.88	893.12	888.29	883.45
x1 = 0.4499	893.63	888.81	884.04	879.2	874.35
x1 = 0.5001	885.14	880.31	875.53	870.68	865.82
x1 = 0.5499	877.24	872.4	867.62	862.75	857.88
x1 = 0.6	869.73	864.89	860.09	855.21	850.33
x1 = 0.6499	862.68	857.84	853.04	848.15	843.25
x1 = 0.6999	856.02	851.16	846.35	841.46	836.55
x1 = 0.7499	849.72	844.85	840.03	835.13	830.23
x1 = 0.8	843.72	838.85	834.02	829.11	824.19
x1 = 0.8499	838.07	833.19	828.35	823.44	818.52
x1 = 0.8998	832.69	827.81	822.98	818.06	813.14
x1 = 0.9499	827.56	822.67	817.83	812.91	808
x1 = 1	822.67	817.77	812.92	808	803.07
